Laboratory results from patent US20240360133A1, “FUSED TRICYCLIC COMPOUND, PREPARATION METHOD THEREFOR AND APPLICATION THEREOF IN MEDICINE” (Jiangsu Hengrui Pharmaceuticals Co., Ltd., priority 2020, published 2024).
pIC50: −log10 of the molar value.

How the values were obtained:
[1] = target: T1, human TLR7 (Homo sapiens, UniProt Q9NYK1); experiment: Inhibitory effect on human TLR7 activation pathway (HEK-Blue hTLR7 SEAP reporter); format: cell-based; conditions: HEK-Blue hTLR7 cells, 1 μM resiquimod, 20 h, SEAP OD620
T1 construct: host or cells: HEK-Blue hTLR7 (HEK293)
T1 sequence (Q9NYK1 27-1049): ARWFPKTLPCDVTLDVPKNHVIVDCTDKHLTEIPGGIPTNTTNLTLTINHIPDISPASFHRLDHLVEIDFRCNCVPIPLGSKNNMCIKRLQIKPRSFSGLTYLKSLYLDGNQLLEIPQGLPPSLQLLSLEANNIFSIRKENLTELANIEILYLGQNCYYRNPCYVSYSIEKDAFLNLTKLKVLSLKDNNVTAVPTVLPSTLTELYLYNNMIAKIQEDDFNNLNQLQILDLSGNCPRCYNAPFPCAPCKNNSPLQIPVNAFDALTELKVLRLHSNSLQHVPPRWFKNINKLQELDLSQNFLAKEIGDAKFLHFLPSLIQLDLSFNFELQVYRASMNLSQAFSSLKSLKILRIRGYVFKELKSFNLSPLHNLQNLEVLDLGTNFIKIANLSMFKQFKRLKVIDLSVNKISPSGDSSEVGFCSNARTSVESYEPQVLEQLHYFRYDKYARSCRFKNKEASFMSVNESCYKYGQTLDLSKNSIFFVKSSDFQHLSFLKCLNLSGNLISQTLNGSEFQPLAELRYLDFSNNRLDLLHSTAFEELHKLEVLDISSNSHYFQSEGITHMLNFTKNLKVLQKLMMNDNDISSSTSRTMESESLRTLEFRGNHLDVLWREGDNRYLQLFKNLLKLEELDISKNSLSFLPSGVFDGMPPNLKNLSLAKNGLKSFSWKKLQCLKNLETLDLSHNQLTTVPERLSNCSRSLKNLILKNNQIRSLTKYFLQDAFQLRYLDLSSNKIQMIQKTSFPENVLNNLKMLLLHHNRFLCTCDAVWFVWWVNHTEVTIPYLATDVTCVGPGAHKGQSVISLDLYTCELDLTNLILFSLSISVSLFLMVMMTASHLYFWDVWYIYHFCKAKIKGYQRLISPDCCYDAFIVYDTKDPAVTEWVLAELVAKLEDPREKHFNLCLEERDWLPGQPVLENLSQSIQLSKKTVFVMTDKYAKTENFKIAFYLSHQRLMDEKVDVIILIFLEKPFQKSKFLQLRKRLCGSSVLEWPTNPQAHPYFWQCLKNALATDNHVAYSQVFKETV
Procedure: (§1) • 1. HEK-Blue™ hTLR7 cell (Invivogen) • 2. Resiquimod (R848, Invivogen) • 3. Alkaline phosphatase detection medium (Quanti-Blue Detection, Invivogen) • 4. Blasticidin (Invivogen) • 5. Zeocin (Invivogen) • 6. Normocin (Invivogen) • 7. DMEM/HIGH Glucose (GE Healthcare) • 8. Fetal bovine serum (FBS, Gibco) • 9. Phosphate-buffered saline (Shanghai BasalMedia Technologies Co., Ltd.) • 10. Sterile purified water (made in-house by Shanghai Hengrui) • 11. 15 mL centrifuge tube (Corning) • 12. %-well formulating plate (Corning) • 13. 96-well flat-bottom cell culture plate (Corning) • 14. Constant-temperature cell incubator (Thermo scientific) • 15. Constant-temperature incubator (Shanghai Yiheng Scientific Instruments Co., Ltd.) • 16. PHERAstar FS microplate reader (BMG Labtech)
(§2) HEK-Blue™ hTLR7 cells were purchased from Invivogen. These cells are HEK293 cells transfected with the human Toll-like receptor 7 (TLR7) gene and the secreted alkaline phosphatase reporter gene (SEAP). The alkaline phosphatase reporter gene (SEAP) is under the regulation of the IFN—P minimal promoter comprising 5 NF-kB and AP-1 binding sites. Upon activation of TLR7 with an agonist, SEAP secretion is induced via downstream NF-kB and AP-1. After addition of an antagonist compound, the pathway described above is inhibited, and SEAP secretion is reduced. The activity of the compounds for the TLR7 pathway was evaluated by measuring OD620 through the SEAP substrate.
(§3) 20 mM test compounds dissolved in 100% DMSO were serially diluted with 100% DMSO to 2000, 400, 80, 16, 3.2, 0.64, 0.128, 0.0256 μM, with blank wells containing 100% DMSO. The compounds and 100% DMSO were then 20-fold diluted in DMEM/HIGH glucose media containing 10% inactivated FBS (complete media, the same applies below). Resiquimod was diluted to 10 μM with sterile water. The 10 μM resiquimod dilution in sterile water was added to a 96-well cell culture plate at 20 μL/well. The above compounds diluted in complete media and 100% DMSO were then added at 20 μL/well to wells containing resiquimod, 20 μL of sterile water and 20 μL of 100% DMSO diluted in the complete medium were added to negative control wells.
(§4) HEK-Blue™ hTLR7 cells were cultured in a DMEM/HIGH glucose medium containing 10% inactivated FBS, 100 μg/mL Normocin, 10 μg/mL blasticidin, and 100 μg/mL Zeocin. Cells that were in a good state of growth and had grown to 70%-80% were collected. The growth medium was discarded, 5-10 mL of PBS pre-heated at 37° C. was added to wash the cells once, and 2-5 mL of pre-heated PBS was added. The cells were cultured at 37° C. for 1-2 min, dispersed by pipetting, transferred to a 15 mL centrifuge tube, and counted, and the cell density was adjusted to 4.8-10′/mL with the complete medium. After density adjustment, 160 μL of the resulting cell suspension was added to the above 96-well cell culture plate to a final number of cells per well of 76,500/well. The final concentration of resiquimod was 1 μM, and the final concentrations of the test compounds were 10,000, 2000, 400, 80, 16, 3.2, 0.64, and 0.128 nM. The cells were cultured in a 37° C., 5% CO2 incubator for 20 h. Then 20 μL of the supernatant was added to 180 μL of the prepared alkaline phosphatase detection medium and incubated in the dark in a constant-temperature incubator at 37° C. for 120 min. Then the OD620 absorbance readings were taken on a microplate reader. The inhibition rate was calculated using the following formula: […]
Inhibition curves were plotted using Graphpad Prism software according to the concentrations of the compounds and the corresponding inhibition rates, and the concentrations of the compounds at which the inhibition rate reached 50%, i.e., IC50 values, were calculated and are shown in Table 1.

[2] = target: T2, human TLR8 (Homo sapiens, UniProt Q9NR97); experiment: Inhibitory effect on human TLR8 pathway (HEK-Blue hTLR8 SEAP reporter); format: cell-based; conditions: HEK-Blue hTLR8 cells, 6 μM resiquimod, 20 h, SEAP OD620
T2 construct: host or cells: HEK-Blue hTLR8 (HEK293)
T2 sequence (Q9NR97 27-1041): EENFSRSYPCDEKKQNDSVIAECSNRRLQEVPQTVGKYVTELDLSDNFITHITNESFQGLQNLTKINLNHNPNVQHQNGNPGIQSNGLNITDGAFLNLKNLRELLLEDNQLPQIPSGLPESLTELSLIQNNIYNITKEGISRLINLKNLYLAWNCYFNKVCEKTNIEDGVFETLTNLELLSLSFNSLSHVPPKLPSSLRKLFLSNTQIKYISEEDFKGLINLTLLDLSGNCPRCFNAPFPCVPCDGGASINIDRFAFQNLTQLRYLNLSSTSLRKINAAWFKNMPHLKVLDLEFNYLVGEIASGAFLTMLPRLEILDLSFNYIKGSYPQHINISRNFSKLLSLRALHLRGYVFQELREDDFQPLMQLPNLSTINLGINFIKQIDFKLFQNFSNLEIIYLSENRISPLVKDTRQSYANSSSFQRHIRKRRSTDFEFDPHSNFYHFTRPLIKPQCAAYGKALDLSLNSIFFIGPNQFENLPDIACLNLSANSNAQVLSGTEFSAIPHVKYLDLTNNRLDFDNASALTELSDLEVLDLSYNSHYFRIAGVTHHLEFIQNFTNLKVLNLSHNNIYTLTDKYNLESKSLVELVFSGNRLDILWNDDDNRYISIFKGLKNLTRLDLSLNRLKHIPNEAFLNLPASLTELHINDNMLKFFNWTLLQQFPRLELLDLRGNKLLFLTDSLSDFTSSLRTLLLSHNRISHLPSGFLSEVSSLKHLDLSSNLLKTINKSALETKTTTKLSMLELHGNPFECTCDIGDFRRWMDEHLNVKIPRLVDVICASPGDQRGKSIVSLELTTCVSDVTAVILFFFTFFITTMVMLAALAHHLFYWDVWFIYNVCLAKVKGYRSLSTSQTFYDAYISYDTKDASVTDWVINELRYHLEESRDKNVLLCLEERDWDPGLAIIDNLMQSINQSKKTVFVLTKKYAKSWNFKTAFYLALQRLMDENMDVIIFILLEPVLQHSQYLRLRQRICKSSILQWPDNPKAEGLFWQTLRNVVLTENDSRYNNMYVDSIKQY
Procedure: as §1, with “hTLR8” for “hTLR7”, “96-well” for “%-well”
as §2, with “hTLR8” for “hTLR7”, “8 (TLR8)” for “7 (TLR7)”, “TLR8” for “TLR7”
as §3, with “to 60” for “to 10”, “The 60” for “The 10”
as §4, with “HEK-Blue™ hTLR8” for “HEK-Blue™ hTLR7”, “to 70%-8%” for “to 70%-80%”, “to 4.8×10^5/mL” for “to 4.8-10′/mL”, “was 6” for “was 1”, “min. The” for “min. Then the”
Inhibition curves were plotted using Graphpad Prism software according to the concentrations of the compounds and the corresponding inhibition rates, and the concentrations of the compounds at which the inhibition rate reached 50%, i.e., IC50 values, were calculated and are shown in Table 2.

SMILES | pIC50 [1] | pIC50 [2]
Cc1cc(-c2[nH]c3cc4c(nc3c2C(C)C)CC(NC2CCOC2)CC4)cc(C)n1 (centres unmarked) [Example 3, 2-(2,6-Dimethylpyridin-4-yl)-3-isopropyl-N-(tetrahydrofuran-3-yl)-5,6,7,8-tetrahydro-1H-pyrrolo[3,2-b]quinolin-6-amine] | 7.83 | 
Cc1cc(-c2[nH]c3cc4c(nc3c2C2CCOCC2)CNCC4)cc(C)n1 [Example 6, 2-(2,6-Dimethylpyridin-4-yl)-3-(tetrahydro-2H-pyran-4-yl)-5,6,7,8-tetrahydro-1H-pyrrolo[3,2-b][1,7]naphthyridine] |  | 7.98
